The target of one assay is KDR (VEGFR2) (Homo sapiens (Human), UniProt P35968). The assay can be described thus: Inhibitory activity against kinase KDR, Z'-LYTE method (Invitrogen). It counts as biochemical. Conditions: 1 μM compound; read-out: Inhibition (% inhibition at 1 μM) against KDR. As to the method: Inhibitory activities of compounds against KDR (VEGFR2) were also measured by Invitrogen using Z′-LYTE® Method as described above with the following modification. The 2× KDR (VEGFR2)/Tyr 01 mixture is prepared in 50 mM HEPES pH 7.5, 0.01% BRIJ-35, 10 mM MgCl2, 1 mM EGTA. The final 10 μL Kinase Reaction consists of 0.5-11.7 ng KDR (VEGFR2) and 2 μM Tyr 01 in 50 mM HEPES pH 7.5, 0.01% BRIJ-35, 10 mM MgCl2, 1 mM EGTA. After the 1 hour Kinase Reaction incubation, 5 μL of a 1:256 dilution of Development Reagent B is added.
The scale utilized in Table 5 is as follows: +++ less than 100 nM; and ++ greater than 100 nM

The next assay has as its target BRAF (Homo sapiens (Human), UniProt P15056). The assay can be described thus: Inhibitory activity against kinase BRAF, Z'-LYTE method (Invitrogen). It counts as biochemical. Particulars: 1 μM compound. As to the method:
Inhibitory activities Inhibitory activities of compounds against BRAF, and BRAF V600E were measured by Invitrogen using Z′-LYTE® Method as briefly described in the following. 4× Test compounds are dissolved in 1% DMSO. […] ATP solutions are diluted to a 4×ATP working concentration in Kinase Buffer (50 mM HEPES pH 7.5, 0.01% BRIJ-35, 10 mM MgCl2, 1 mM EGTA). Reaction started by 30-second shaking of mixture consisting of 2.5 μL 4× test compound, […] and 2.5 μL 4×ATP Solution on Bar-coded Corning, low volume NBS, black 384-well plate (Corning Cat. #3676). Then the mixture was incubated for 60-minute at room temperature for the kinase reaction, followed by addition of 5 μL of a 1:1024 dilution of development reagent A and 30-second plate shake. The mixture was then incubated for another 60-minute at room temperature for development reaction. Fluorescence was read by plate reader. IC50 was calculated by plotting the concentration of compound vs the percentage of inhibition in treated wells using GraphPad Prism 5.
Table 2 and 3 show % inhibition at 1 μM of several compounds of the invention against BRAF and BRAF V600E, respectively, using Z′-LYTE® method.

A further assay addresses BRAF V600E (Homo sapiens (Human), UniProt P15056, V600E). As to the kind of experiment: Inhibitory activity against kinase BRAF V600E, Z'-LYTE method (Invitrogen). It counts as biochemical. Particulars: 1 μM compound; read-out: Inhibition (% inhibition at 1 μM) against BRAF V600E. The method in brief: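 FRET-based Z′-LYTE peptide-phosphorylation assay in 50 mM HEPES pH 7.5, 0.01% BRIJ-35, 10 mM MgCl2, 1 mM EGTA; kinase reaction 60 min at room temperature, then 60 min development before fluorescence read. IC50 from concentration vs % inhibition; single-point % inhibition tested at 1 μM.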

For the next assay, the system named is A549 cells. As to the kind of experiment: Inhibition of cancer cell growth, MTT or MTS assay, A549. It counts as cell-based. Conditions: Homo sapiens, 72 h incubation. In outline:
(§1)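 Cells in RPMI 1640 with 10% FBS were seeded at ~2000 (A375) or 4000 (A549, Colo205) per well, grown 24 h, then exposed to compound 72 h at 1% final DMSO. Read-out by MTT (570 nm) or MTS (490 nm). IC50 from concentration vs percent inhibition, triplicates.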
In general terms: Tetrazolium dyes change colour on reduction, which living cells bring about.

The test system of a further assay is A375 cells. The assay can be described thus: Inhibition of cancer cell growth, MTT or MTS assay, A375. The class given is cell-based. Particulars: Homo sapiens, A-375; 72 h incubation. In outline: as §1

A value given as a limit tells only on which side of the number the result lay.

BRAF, sequence (P15056 whole entry): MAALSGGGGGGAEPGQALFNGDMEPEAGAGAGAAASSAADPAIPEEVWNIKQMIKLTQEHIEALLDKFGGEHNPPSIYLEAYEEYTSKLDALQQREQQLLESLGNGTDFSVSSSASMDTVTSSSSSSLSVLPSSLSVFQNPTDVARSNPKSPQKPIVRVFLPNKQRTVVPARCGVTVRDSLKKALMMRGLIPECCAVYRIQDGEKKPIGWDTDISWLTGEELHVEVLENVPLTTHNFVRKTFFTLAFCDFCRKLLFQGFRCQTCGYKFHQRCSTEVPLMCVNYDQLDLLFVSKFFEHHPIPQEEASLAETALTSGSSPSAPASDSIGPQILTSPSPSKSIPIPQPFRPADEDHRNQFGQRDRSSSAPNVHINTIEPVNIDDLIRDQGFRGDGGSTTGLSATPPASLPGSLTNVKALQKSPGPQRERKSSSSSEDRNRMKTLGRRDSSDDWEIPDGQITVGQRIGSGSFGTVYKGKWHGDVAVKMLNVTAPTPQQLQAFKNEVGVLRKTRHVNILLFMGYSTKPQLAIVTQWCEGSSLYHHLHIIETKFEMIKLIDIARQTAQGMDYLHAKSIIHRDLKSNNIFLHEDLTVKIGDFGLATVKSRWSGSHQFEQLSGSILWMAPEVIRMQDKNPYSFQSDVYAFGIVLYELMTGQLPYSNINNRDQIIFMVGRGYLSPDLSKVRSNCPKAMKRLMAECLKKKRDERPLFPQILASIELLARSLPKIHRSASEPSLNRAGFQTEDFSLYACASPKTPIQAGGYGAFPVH
BRAF V600E, sequence (P15056 whole entry V600E): as the sequence (P15056 whole entry) above, with V600E counted along it
KDR (VEGFR2), sequence (P35968 20-1356): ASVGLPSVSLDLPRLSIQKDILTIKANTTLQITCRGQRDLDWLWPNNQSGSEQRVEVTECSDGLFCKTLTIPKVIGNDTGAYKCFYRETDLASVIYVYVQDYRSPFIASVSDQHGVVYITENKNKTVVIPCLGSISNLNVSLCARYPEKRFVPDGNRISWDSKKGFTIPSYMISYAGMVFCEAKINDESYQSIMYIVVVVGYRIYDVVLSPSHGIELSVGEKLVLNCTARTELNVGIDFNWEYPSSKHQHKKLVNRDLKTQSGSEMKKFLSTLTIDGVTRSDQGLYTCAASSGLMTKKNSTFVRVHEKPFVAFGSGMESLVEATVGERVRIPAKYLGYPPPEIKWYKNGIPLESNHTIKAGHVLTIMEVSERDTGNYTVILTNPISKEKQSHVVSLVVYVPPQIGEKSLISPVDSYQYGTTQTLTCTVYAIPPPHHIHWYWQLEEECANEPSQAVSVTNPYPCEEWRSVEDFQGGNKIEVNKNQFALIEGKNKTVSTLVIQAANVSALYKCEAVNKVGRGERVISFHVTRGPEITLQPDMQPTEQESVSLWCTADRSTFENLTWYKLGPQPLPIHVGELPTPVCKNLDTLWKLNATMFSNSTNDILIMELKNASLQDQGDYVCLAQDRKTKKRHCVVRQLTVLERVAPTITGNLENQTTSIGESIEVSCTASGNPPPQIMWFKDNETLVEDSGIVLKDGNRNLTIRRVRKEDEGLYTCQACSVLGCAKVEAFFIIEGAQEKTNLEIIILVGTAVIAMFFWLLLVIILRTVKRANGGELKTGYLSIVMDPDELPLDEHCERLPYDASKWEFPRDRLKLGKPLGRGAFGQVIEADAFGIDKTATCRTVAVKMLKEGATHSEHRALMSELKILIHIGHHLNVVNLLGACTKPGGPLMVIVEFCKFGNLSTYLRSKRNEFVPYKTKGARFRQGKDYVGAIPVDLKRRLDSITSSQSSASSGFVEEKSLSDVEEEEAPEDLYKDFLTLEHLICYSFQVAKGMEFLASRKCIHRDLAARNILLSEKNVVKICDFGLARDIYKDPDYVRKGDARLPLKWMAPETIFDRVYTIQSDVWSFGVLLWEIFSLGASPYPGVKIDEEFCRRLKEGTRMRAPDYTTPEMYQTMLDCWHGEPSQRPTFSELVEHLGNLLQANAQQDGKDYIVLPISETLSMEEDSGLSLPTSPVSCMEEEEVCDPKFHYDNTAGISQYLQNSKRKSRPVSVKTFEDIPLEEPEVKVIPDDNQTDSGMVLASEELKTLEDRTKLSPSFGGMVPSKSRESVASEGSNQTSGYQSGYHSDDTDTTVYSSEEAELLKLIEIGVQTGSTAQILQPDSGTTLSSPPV

`O=C(Nc1cccc(Cl)c1)Nc1cccc(Oc2ccc3ncc(N4CCNCC4)nc3c2)c1` [Compound C050, 1-(3-chlorophenyl)-3-(3-((3-(piperazin-1-yl)quinoxalin-6-yl)oxy)phenyl)urea]: the inhibition at 1 µM on KDR (VEGFR2), against BRAF and at BRAF V600E was above 89% throughout. In addition, the IC50 (commonly the concentration needed to halve the response being measured) in the assay on A549 cells is 2 to 5 µM.

`O=C(Nc1ccc(Cl)cc1)Nc1cccc(Oc2ccc3ncc(N4CCNCC4)nc3c2)c1` [Compound C051, 1-(4-chlorophenyl)-3-(3-((3-(piperazin-1-yl)quinoxalin-6-yl)oxy)phenyl)urea]: the inhibition at 1 µM on KDR (VEGFR2), against BRAF and on BRAF V600E was above 89% throughout. The compound further came in with an IC50 in the assay with A549 cells of 2 to 5 µM.

As to `O=C(Nc1cc(F)cc(F)c1)Nc1cccc(Oc2ccc3ncc(N4CCNCC4)nc3c2)c1` [Compound C039, 1-(3,5-difluorophenyl)-3-(3-((3-(piperazin-1-yl)quinoxalin-6-yl)oxy)phenyl)urea], the figures for the inhibition at 1 µM on KDR (VEGFR2), against BRAF and on BRAF V600E were 70 to 89%, above 89% and above 89%, respectively. Further, the IC50 in the assay with A549 cells was above 5 µM.

`O=C(Nc1cccc(Oc2ccc3ncc(N4CCOCC4)nc3c2)c1)Nc1ccc(Cl)c(C(F)(F)F)c1` [Compound C049, 1-(4-chloro-3-(trifluoromethyl)phenyl)-3-(3-((3-morpholinoquinoxalin-6-yl)oxy)phenyl)urea]: the inhibition (usually the relative decrease from the control value, in per cent) at 1 µM is above 89% at KDR (VEGFR2), 70 to 89% against BRAF and 70 to 89% at BRAF V600E. The IC50 with A549 cells is 2 to 5 µM.

On to `O=C(Nc1cc(F)cc(F)c1)Nc1ccc(F)c(Oc2ccc3ncc(N4CCNCC4)nc3c2)c1` [Compound C062, 1-(3,5-difluorophenyl)-3-(4-fluoro-3-((3-(piperazin-1-yl)quinoxalin-6-yl)oxy)phenyl)urea], for which the inhibition at 1 µM on KDR (VEGFR2) was 70 to 89%; against BRAF, above 89%; on BRAF V600E, above 89%. The IC50 in the assay on A549 cells lay within 2 to 5 µM.

For the compound `O=C(Nc1cccc(Cl)c1)Nc1ccc(F)c(Oc2ccc3ncc(N4CCNCC4)nc3c2)c1` [Compound C063, 1-(3-chlorophenyl)-3-(4-fluoro-3-((3-(piperazin-1-yl)quinoxalin-6-yl)oxy)phenyl)urea], the inhibition at 1 µM at KDR (VEGFR2), against BRAF and at BRAF V600E was above 89% each time. The compound also had a half-inhibitory concentration (IC50) in the assay on A549 cells of 2 to 5 µM.

Regarding `O=C(Nc1ccc(F)cc1)Nc1cccc(Oc2ccc3ncc(N4CCNCC4)nc3c2)c1` [Compound C038, 1-(4-fluorophenyl)-3-(3-((3-(piperazin-1-yl)quinoxalin-6-yl)oxy)phenyl)urea], the inhibition at 1 µM at KDR (VEGFR2), against BRAF and on BRAF V600E was above 89% each time. Further, the IC50 in the assay with A549 cells was above 5 µM.

For `O=C(Nc1ccc(F)cc1)Nc1cccc(Oc2ccc3ncc(N4CCOCC4)nc3c2)c1` [Compound C043, 1-(4-fluorophenyl)-3-(3-((3-morpholinoquinoxalin-6-yl)oxy)phenyl)urea], the inhibition at 1 µM at KDR (VEGFR2) is above 89%; at BRAF, 70 to 89%; on BRAF V600E, above 89%. Further, the IC50 in the assay on A549 cells was above 5 µM.

Consider `O=C(Nc1ccc(Cl)c(F)c1)Nc1ccc(F)c(Oc2ccc3ncc(N4CCNCC4)nc3c2)c1` [Compound C068, 1-(4-chloro-3-fluorophenyl)-3-(4-fluoro-3-((3-(piperazin-1-yl)quinoxalin-6-yl)oxy)phenyl)urea], for which the results for the inhibition at 1 µM on KDR (VEGFR2), on BRAF and at BRAF V600E were 70 to 89%, above 89% and above 89%, respectively. In the assay with A549 cells, this compound registered an IC50 below 2 µM.

For the compound `O=C(Nc1ccc(F)c(F)c1)Nc1ccc(F)c(Oc2ccc3ncc(N4CCNCC4)nc3c2)c1` [Compound C061, 1-(3,4-difluorophenyl)-3-(4-fluoro-3-((3-(piperazin-1-yl)quinoxalin-6-yl)oxy)phenyl)urea], the inhibition at 1 µM at KDR (VEGFR2) was 70 to 89%; against BRAF, above 89%; on BRAF V600E, above 89%. In the assay with A549 cells, the IC50 is above 5 µM.

In the case of `O=C(Nc1cccc(Oc2ccc3ncc(N4CCNCC4)nc3c2)c1)Nc1ccc(F)c(F)c1` [Compound C036, 1-(3,4-difluorophenyl)-3-(3-((3-(piperazin-1-yl)quinoxalin-6-yl)oxy)phenyl)urea], the inhibition at 1 µM on KDR (VEGFR2), at BRAF and on BRAF V600E was above 89% each time. Further, in the assay on A549 cells, the IC50 was above 5 µM.

For the compound `O=C(Nc1cccc(C(F)(F)F)c1)Nc1ccc(F)c(Oc2ccc3ncc(N4CCNCC4)nc3c2)c1` [Compound C065, 1-(4-fluoro-3-((3-(piperazin-1-yl)quinoxalin-6-yl)oxy)phenyl)-3-(3-(trifluoromethyl)phenyl)urea], the inhibition at 1 µM at KDR (VEGFR2), against BRAF and on BRAF V600E was above 89% throughout. This compound also showed an IC50 in the assay on A549 cells of 2 to 5 µM.

As to `O=C(Nc1cccc(F)c1)Nc1ccc(F)c(Oc2ccc3ncc(N4CCNCC4)nc3c2)c1` [Compound C059, 1-(4-fluoro-3-((3-(piperazin-1-yl)quinoxalin-6-yl)oxy)phenyl)-3-(3-fluorophenyl)urea], the inhibition at 1 µM at KDR (VEGFR2) was 70 to 89%; against BRAF it was above 89%; on BRAF V600E, above 89%. Also, the half-inhibitory concentration (IC50) in the assay with A549 cells was in the range of 2 to 5 µM.

Turning to `O=C(Nc1ccc(Oc2ccc3nccnc3c2)cc1)Nc1ccc(Cl)c(C(F)(F)F)c1` [Compound C076, 1-(4-chloro-3-(trifluoromethyl)phenyl)-3-(4-(quinoxalin-6-yloxy)phenyl)urea], the inhibition at 1 µM on KDR (VEGFR2) and at BRAF V600E was 70 to 89% in each case. Also, the figures for the IC50 with A375 cells and in the assay on A549 cells were 1 to 5 µM and above 5 µM, respectively.

In the case of `O=C(Nc1cc(F)cc(Oc2ccc3ncc(N4CCOCC4)nc3c2)c1)Nc1cccc(C(F)(F)F)c1` [Compound C032, 1-(3-fluoro-5-((3-morpholinoquinoxalin-6-yl)oxy)phenyl)-3-(3-(trifluoromethyl)phenyl)urea], the inhibition at 1 µM at KDR (VEGFR2) and on BRAF V600E was 70 to 89% in each case. For the same compound, the IC50 in the assay on A375 cells is 1 to 5 µM; with A549 cells, 2 to 5 µM.

For the compound `O=C(Nc1cccc(C(F)(F)F)c1)Nc1ccc(F)c(Oc2ccc3nccnc3c2)c1` [Compound C024, 1-(4-fluoro-3-(quinoxalin-6-yloxy)phenyl)-3-(3-(trifluoromethyl)phenyl)urea], the inhibition at 1 µM on KDR (VEGFR2) is 70 to 89%; on BRAF V600E it was above 89%. Also, the IC50 was 1 to 5 µM with A375 cells and below 2 µM with A549 cells.

Regarding `O=C(Nc1cc(F)cc(Oc2ccc3ncc(N4CCOCC4)nc3c2)c1)Nc1ccc(Cl)c(C(F)(F)F)c1` [Compound C033, 1-(4-chloro-3-(trifluoromethyl)phenyl)-3-(3-fluoro-5-((3-morpholinoquinoxalin-6-yl)oxy)phenyl)urea], the inhibition at 1 µM at KDR (VEGFR2) and on BRAF V600E was 70 to 89% in each case. The IC50 was below 1 µM with A375 cells and below 2 µM in the assay on A549 cells.

Turning to `O=C(Nc1cc(F)cc(Oc2ccc3nccnc3c2)c1)Nc1ccc(Cl)c(C(F)(F)F)c1` [Compound C022, 1-(4-chloro-3-(trifluoromethyl)phenyl)-3-(3-fluoro-5-(quinoxalin-6-yloxy)phenyl)urea], the inhibition at 1 µM at KDR (VEGFR2) and on BRAF V600E was 70 to 89% in each case. Besides, the results for the IC50 in the assay with A375 cells and in the assay with A549 cells were below 1 µM and below 2 µM, respectively.

These data come from US10590106B2, “Certain chemical entities, compositions, and methods” (NeuPharma, Inc., priority 2012, dated 2020).
